Laboratory results taken from the RepoRT retention time repository.

Experiment: Waters ACQUITY UPLC BEH C18, 50 × 2.1 mm, 1.7 µm, 30 °C, 0.3 mL/min, estimated dead time 0.37 min; A: water + 0.3% formic acid; B: acetonitrile; gradient (min/%B) 0.5/5 3.5/20 5.5/25 7/57 8/90
Conditions: stereoisomer not certain

SMILES | LC retention time
Nc1nc(N)c2nc(-c3ccccc3)c(N)nc2n1 | 3 min
COCCc1ccc(OCC(O)CNC(C)C)cc1 (stereo unspecified) | 3.81 min
CC(C)=CCN1CCC2(C)c3cc(O)ccc3CC1C2C (stereo unspecified) | 5.07 min
CCCCNc1cc(C(=O)O)cc(S(N)(=O)=O)c1Oc1ccccc1 | 7.49 min
CC(Cc1ccccc1)NCCn1cnc2c1c(=O)n(C)c(=O)n2C (stereo unspecified) | 4.01 min
C#CCN(C)C(C)Cc1ccccc1 (stereo unspecified) | 3.38 min
CC(N)Cc1ccccc1 (stereo unspecified) | 2.37 min
Cc1cccc(Nc2ccncc2S(=O)(=O)NC(=O)NC(C)C)c1 | 6.02 min
CCN(CC)C(=O)Nc1ccc(OCC(O)CNC(C)(C)C)c(C(C)=O)c1 (stereo unspecified) | 4.46 min
CC(=O)OCC(=O)C12N=C(C)OC1CC1C3CCC4=CC(=O)C=CC4(C)C3C(O)CC12C (stereo unspecified) | 7.2 min
Nc1nc(N)c(-c2ccccc2)s1 | 1.84 min
CC(Cc1ccccc1)[n+]1cc(N=C([O-])Nc2ccccc2)on1 (stereo unspecified) | 7.25 min
CC1CC2C(C(O)CC3(C)C2CCC3(O)C(=O)CO)C2(C)C=CC(=O)C=C12 (stereo unspecified) | 6.78 min
CC12CCC3C(CCC4=CC(=O)C=CC43C)C1CCC(=O)O2 (stereo unspecified) | 6.56 min
Cc1cc2c(OCC(CNC(C)(C)C)OC(=O)c3ccccc3)cccc2[nH]1 (stereo unspecified) | 6.95 min
CNC(C)CC1CCCCC1 (stereo unspecified) | 4.4 min
CC=CC(=O)N(CC)C(CC)C(=O)N(C)C (stereo unspecified) | 4.55 min
CNC(C)Cc1ccc2c(c1)OCO2 (stereo unspecified) | 2.73 min
COC12CCC3(CC1C(C)(O)C(C)(C)C)C1Cc4ccc(O)c5c4C3(CCN1CC1CC1)C2O5 (stereo unspecified) | 6.55 min
O=C(c1ccc(OCCN2CCCCC2)cc1)c1c(-c2ccc(O)cc2)sc2cc(O)ccc12 | 6.58 min
CC(C)(C)NCC(O)c1ccc(O)c(CO)c1 (stereo unspecified) | 1.45 min
CN1CCC23c4c5ccc(O)c4OC2C(=O)CCC3C1C5 (stereo unspecified) | 1.48 min
CC(C)c1c(CN(C)C(C)Cc2ccccc2)n(C)n(-c2ccccc2)c1=O (stereo unspecified) | 6.48 min
CC12C=CC(=O)C=C1CCC1C2C(=O)CC2(C)C1CCC2(O)C(=O)CO (stereo unspecified) | 6.12 min
NC(=O)CN1CC(c2ccccc2)CC1=O (stereo unspecified) | 3.86 min

SMILES | LC retention time
OC(c1ccccc1)(c1ccccc1)C1CCCCN1 (stereo unspecified) | 4.75 min
COC(=O)C1CC2=CC(=O)CCC2(C)C23OC2CC2(C)C(CCC24CCC(=O)O4)C13 (stereo unspecified) | 6.75 min
CC12Cc3cn[nH]c3C(O)C1CCC1C2CCC2(C)C1CCC2(C)O (stereo unspecified) | 6.7 min
CNC(C)C(O)c1ccc(O)cc1 (stereo unspecified) | 0.65 min
CCN(CC)C(=O)c1ccc(O)c(OC)c1 | 4.77 min
CCC(C(=O)OCCN1CCOC(c2ccccc2)C1C)c1ccccc1 (stereo unspecified) | 7.17 min
COC(=O)C(c1ccccc1)C1CCCCN1 (stereo unspecified) | 3.9 min
O=C1CC2OCC=C3CN4CCC56c7ccccc7N1C5C2C3CC46 (stereo unspecified) | 3.01 min
CCN(CC)C(=O)c1cccnc1 | 2.02 min
CC(N)C(O)c1ccccc1 (stereo unspecified) | 1.7 min
COc1ccc2c3c1OC1C(O)C=CC4C(C2)N(C)CCC341 (stereo unspecified) | 2.15 min
CN1C2CCC1C(C(=O)O)C(OC(=O)c1ccccc1)C2 (stereo unspecified) | 3.31 min
CC(C)NCC(O)COc1ccc(CC(N)=O)cc1 (stereo unspecified) | 1.62 min
C=CCc1ccccc1OCC(O)CNC(C)C (stereo unspecified) | 5.93 min
NC(=O)CS(=O)C(c1ccccc1)c1ccccc1 (stereo unspecified) | 6.01 min
CCCC1OC2CC3C4CCC5=CC(=O)C=CC5(C)C4C(O)CC3(C)C2(C(=O)CO)O1 (stereo unspecified) | 7.46 min
N=C1NC(=O)C(c2ccccc2)O1 (stereo unspecified) | 2.7 min
COc1ccc2c3c1OC1C(=O)CCC4(O)C(C2)N(C)CCC314 (stereo unspecified) | 2.47 min
Cc1ccc(CC(C)N)cc1 (stereo unspecified) | 3.45 min
CC(C)(C)NCC(O)COc1cccc2c1CCCC2=O (stereo unspecified) | 4 min
CC(CCc1ccccc1)NCC(O)c1ccc(O)c(C(N)=O)c1 (stereo unspecified) | 5.1 min
CCC1(c2ccc(N)cc2)CCC(=O)NC1=O (stereo unspecified) | 2.2 min
O=C(O)CS(=O)C(c1ccccc1)c1ccccc1 (stereo unspecified) | 6.69 min
CC1C(c2ccccc2)OCCN1C (stereo unspecified) | 2.55 min
CC1(C)OC2CC3C4CCC5=CC(=O)C=CC5(C)C4C(O)CC3(C)C2(C(=O)CO)O1 (stereo unspecified) | 6.98 min

SMILES | LC retention time
CNCC(C)c1ccccc1 (stereo unspecified) | 2.57 min
CC(C)(N)Cc1ccccc1 | 2.91 min
CC(Cc1ccccc1)NCCC#N (stereo unspecified) | 2.77 min
CC(C)NCC(O)c1ccc(NS(C)(=O)=O)cc1 (stereo unspecified) | 1.58 min
CC(CN1CCOCC1)C(C(=O)N1CCCC1)(c1ccccc1)c1ccccc1 (stereo unspecified) | 6.97 min
CC(C)NCC(O)COc1ccc(CCOCC2CC2)cc1 (stereo unspecified) | 6.11 min
CC(Cc1ccccc1)NC(C#N)c1ccccc1 (stereo unspecified) | 7.8 min
CCNCC(O)c1cccc(O)c1 (stereo unspecified) | 0.92 min
CC(N)Cc1ccc2c(c1)OCO2 (stereo unspecified) | 2.5 min
CCCC(Cc1ccccc1)N1CCCC1 (stereo unspecified) | 5.09 min
CCC(C)CC(C)N (stereo unspecified) | 2.87 min
CN1CCC23c4c5ccc(O)c4OC2C(O)C=CC3C1C5 (stereo unspecified) | 1.1 min
CC(Cc1ccccc1)N(C)Cc1ccccc1 (stereo unspecified) | 5.59 min
CC(N)CCCC(C)(C)O (stereo unspecified) | 1.29 min
CNC(C)(C)Cc1ccccc1 | 3.14 min
CNC(C)Cc1ccccc1 (stereo unspecified) | 2.59 min
CC=CC(=O)N(CCC)C(CC)C(=O)N(C)C (stereo unspecified) | 5.92 min
CC(C)(C)NCC(O)COc1cccc2c1CC(O)C(O)C2 (stereo unspecified) | 2.81 min
CC1(O)CCC2C3CCC4=CC(=O)CCC4=C3C=CC21C (stereo unspecified) | 7.12 min
CC(C)(C)NCC(O)COc1nsnc1N1CCOCC1 (stereo unspecified) | 3.62 min
CC(=O)Nc1nnc(S(N)(=O)=O)s1 | 1.78 min
C=CCOc1ccccc1OCC(O)CNC(C)C (stereo unspecified) | 4.66 min
CC(=O)Oc1c(C)cc(OCC(O)CNC(C)C)c(C)c1C (stereo unspecified) | 5.62 min
CCCC(=O)Nc1ccc(OCC(O)CNC(C)C)c(C(C)=O)c1 (stereo unspecified) | 3.71 min
Cc1ccccc1CC(C)N (stereo unspecified) | 3.25 min

SMILES | LC retention time
C#CC1(O)CCC2C3C(C)CC4=C(CCC(=O)C4)C3CCC21C (stereo unspecified) | 7.51 min
CNC(C)Cc1ccc(O)cc1 (stereo unspecified) | 1.24 min
C#CC1(O)CCC2C3CCC4=Cc5oncc5CC4(C)C3CCC21C (stereo unspecified) | 8.13 min
CC1NCCOC1c1ccccc1 (stereo unspecified) | 2.51 min
CNC(C)C(O)c1ccccc1 (stereo unspecified) | 2 min
O=C(CS(=O)C(c1ccccc1)c1ccccc1)NO (stereo unspecified) | 5.7 min
OCc1cc(C(O)CNCCCCCCOCCCCc2ccccc2)ccc1O (stereo unspecified) | 7.12 min
CC12CCC(=O)C=C1CCC1C2C(=O)CC2(C)C1CCC2(O)C(=O)CO (stereo unspecified) | 6.31 min
NC(=O)c1ncn(C2OC(CO)C(O)C2O)c1N (stereo unspecified) | 0.58 min
CC(Cc1ccccc1)N(C)C (stereo unspecified) | 2.76 min
CC(C)NC1CCn2c(=O)[nH]c3cccc(c32)C1O (stereo unspecified) | 1.43 min
CCCN(CCC)S(=O)(=O)c1ccc(C(=O)O)cc1 | 7.56 min
O=C(O)C(c1ccccc1)C1CCCCN1 (stereo unspecified) | 3.25 min
CC(C)(C#N)c1cc(Cn2cncn2)cc(C(C)(C)C#N)c1 | 6.91 min
CC(C)NCC(O)COc1cccc2[nH]ccc12 (stereo unspecified) | 2.74 min
CC(C)(C)NCC(O)COc1cccc2c1CCC(=O)N2 (stereo unspecified) | 2.65 min
CC(C)NCC(O)COc1ccc(COCCOC(C)C)cc1 (stereo unspecified) | 5.03 min
CNC(C)Cc1ccccc1OC (stereo unspecified) | 3.3 min
COC(=O)CCc1ccc(OCC(O)CNC(C)C)cc1 (stereo unspecified) | 4.31 min
C1CCc2nnnn2CC1 | 2.4 min
CN1CCC23c4c5ccc(O)c4OC2C(=O)CCC3(O)C1C5 (stereo unspecified) | 1.21 min
CNC(C)CCC=C(C)C (stereo unspecified) | 3.6 min
CCCCCC(C)N (stereo unspecified) | 3.17 min
O=C1NC(=NC2CC2)OC1c1ccccc1 (stereo unspecified) | 4.84 min
CCN(CC)C(C)C(=O)c1ccccc1 (stereo unspecified) | 2.73 min

SMILES | LC retention time
CC(Cc1ccccc1)N(C)Cc1ccco1 (stereo unspecified) | 4.46 min
CCC(=O)C(CC(C)N(C)C)(c1ccccc1)c1ccccc1 (stereo unspecified) | 7.03 min
NC(CC(O)COc1cccc2ccccc12)=NO (stereo unspecified) | 4.76 min
CC12CCC(=O)C=C1CCC1C2C(O)CC2(C)C1CCC2(O)C(=O)CO (stereo unspecified) | 6.23 min
COc1ccccc1OCCNCC(O)COc1cccc2[nH]c3ccccc3c12 (stereo unspecified) | 6.81 min
CC(N)Cc1ccc(O)cc1 (stereo unspecified) | 1.17 min
CCOC(=O)C1(c2ccccc2)CCN(C)CC1 | 4.43 min
CC12C=CC(=O)C=C1CCC1C2C(O)CC2(C)C1CCC2(O)C(=O)CO (stereo unspecified) | 6.15 min
CC(C(O)c1ccccc1)N(C)C (stereo unspecified) | 2.2 min
c1ccc(CN2CCNCC2)cc1 | 0.67 min
CN(C)C(=O)Oc1cc(OC(=O)N(C)C)cc(C(O)CNC(C)(C)C)c1 (stereo unspecified) | 4.59 min
CC12CCC(=O)C=C1C=CC1C2CCC2(C)C1CCC21CCC(=O)O1 (stereo unspecified) | 7.63 min
Cc1cc(C)cc(NC(=O)Cc2ccc(OC(C)(C)C(=O)O)cc2)c1 | 7.59 min
CCNC1C2CCC(C2)C1c1ccccc1 (stereo unspecified) | 4.97 min
CCC1(O)CCC2C3CCC4=CC(=O)CCC4=C3C=CC21CC (stereo unspecified) | 7.79 min
C#CC1(O)CCC2C3CCC4=CC(=O)CCC4=C3C=CC21CC (stereo unspecified) | 7.47 min
CC(Cc1ccc(O)cc1)NCC(O)c1cc(O)cc(O)c1 (stereo unspecified) | 2.23 min
CCC(=C(c1ccccc1)c1ccc(OCCN(C)C)cc1)c1ccccc1 | 7.76 min
CC12Cc3c([nH][nH]c3=O)CC1CCC1C2CCC2(C)C1CCC2(C)O (stereo unspecified) | 6.7 min
CC(C)NCC(O)COc1cccc2ccccc12 (stereo unspecified) | 5.78 min
COc1ccc(CC(C)NCC(O)c2ccc(O)c(NC=O)c2)cc1 (stereo unspecified) | 3.94 min
